Experimental data as given in patent publication US20240335438A1, “TARGETING DOT1L AND SMARCA4/2 FOR THE TREATMENT OF MLLR LEUKEMIA” (DANA-FARBER CANCER INSTITUTE, INC., priority 2021, published 2024).
“Also recorded” adds a separate entry of the source.

Key:
[1] = test system: MLLr acute myeloid leukemia (AML); conditions: cited from earlier work
MLL rearranged cells = conditions: cited from earlier work
MLL-AF9 targets = test: RNA sequencing of MLL-AF9 targets (heatmap, GSEA) in MOLM13 cells; assay type: cell-based; conditions: EPZ5676 1.25 μM 4 days, S31 1 μM 6-10 hr, FIG. 11A
Description: MOLM13 cells were primed with 1.25 μM of EPZ5676 or DMSO for 4 days. At day 5, additional S31 (1 μM) or DMSO was added for another 6-10 hr. Cells were harvested and subjected to RNA isolation. Isolated RNA was sent to Novogene (USA) for RNA sequencing. Expression values of MLL-AF9 targets from each treatment group were plotted in heatmap (Morpheus) (FIG. 11A). GSEA analysis was performed by GSEA software 4.1.0 (Broad Institute) (FIG. 11B).
The molecular interdependency between DOT1L inhibition and SMARCA4/2 inactivation was explored using RNA-seq in MOLM13 cells treated with DMSO. S31. EPZ5676 and S31+EPZ5676. Persistent expression of MLL fusion targets maintained the leukemic transformation as a stem cell-like state. […] To define a detailed regulatory pattern of the effects of SMARCA4/2 and DOT1L on these genes, the RNA-seq results were plotted in a heatmap and identified one subset of genes are of particular interest. […] However, the combination of the two induced significant reduction of genes such as MYB and FLT3, which are critical for MLLr leukemia proliferation. S31 sensitized such MLL-AF9) targets to EPZ5676. This was confirmed via Q-PCR.

cleaved PARP = test: Cleaved PARP expression (apoptosis); assay type: cell-based; conditions: after 6 hours of treatment
Description: (§1) MOLM13 WT and CRBN KO cells were treated with 1 μM of S31 at indicated time points. Cell lysates were harvested, and proteins were extracted using RIPA buffer.
Chemical inhibition of targeted proteins offered the opportunity to understand the function and therapeutic potential of the targets with temporal control. There are several small molecule inhibitors that have been reported to target SMARCA2/4. […] Therefore, PROTACs, bridging small molecules that recruit the target protein into proximity with the E3 ligase system to initiate proteasomal degradation of targeted proteins inside the cells, were developed to target SMARCA2/4. The strategy has recently been described and utilized for the depletion of multiple targets including BRD4, FKBP12, ERR, RIPK2 and BRD9. Compound (1) (S31) is a molecule that contains phthalimide (thalidomide, lenalidomide and pomalidomide, also known as IMiDs®), a CRBN binder, and a SMARCA4/2 binder that are linked via an alkyl linker. The PROTAC dimerized targeted proteins and CRBN, and induced polyubiquitylation followed by proteasomal degradation of SMARCA4/2.

[2] = test system: panel of leukemia cell lines; test: Growth inhibition in a panel of leukemia cell lines (ATPlite); assay type: cell-based; conditions: 72 hr, FIG. 3
Description: S31 was treated in a panel of leukemia cell lines with 10 doses ranging from 10 μM to 1 nM. After 72 hr of treatment, growth inhibition was determined by ATPlite™ (PerkinElmer®). IC50 was calculated by GraphPad Prism® 7 (FIG. 3).

His-CRBN = His-CRBN (Homo sapiens, UniProt Q96SW2); test: CRBN binding, biotin-pomalidomide probe with streptavidin donor and nickel chelate acceptor beads; conditions: 50 nM His-CRBN, 1 hr, FIG. 1B
Description: 50 nM of His-CRBN was incubated with biotinylated probe (biotin-pomalidomide), streptavidin donor beads (PerkinElmer®), nickel chelate acceptor beads (PerkinElmer®) and compounds (S31, PFI3 or pomalidomide at indicated concentrations) for 1 hr. After incubation, […] was read according to manufacture instructions (FIG. 1B).

SMARCA4 [3] = target: T1, SMARCA4 (Homo sapiens, UniProt P51532); test: SMARCA4 degradation by Western Blotting in MOLM13 cells; assay type: cell-based; design: endogenous in cells; host or cells: MOLM13 WT and CRBN KO cells; conditions: MOLM13 WT and CRBN KO cells, 1 μM, indicated time points, FIG. 2
Description: as §1

SMARCA2 [4] = target: T2, SMARCA2 (Homo sapiens, UniProt P51531); test: DSF assay (Protein Thermal Shift Dye Kit), SMARCA2 binding; conditions: 30 min incubation, indicated ratios, FIG. 1A
Description: (§2) Recombinant SMARCA4 and SMARCA2 proteins were incubated with S31 at indicated ratios. After 30 min of incubation, DSF assay was performed using Protein Thermal Shift™ Dye Kit (ThermoFisher™) according to manufacture instructions (FIG. 1A).

SMARCA4 [5] = target: T1, SMARCA4; test: DSF assay (Protein Thermal Shift Dye Kit), SMARCA4 binding; conditions: 30 min incubation, indicated ratios, FIG. 1A
Description: as §2

SMARCA2 [6] = target: T2, SMARCA2; test: SMARCA2 degradation by Western Blotting in MOLM13 cells; assay type: cell-based; design: endogenous in cells; host or cells: MOLM13 WT and CRBN KO cells; conditions: MOLM13 WT and CRBN KO cells, 1 μM, indicated time points, FIG. 2
Description: as §1

T2 sequence (P51531 whole entry): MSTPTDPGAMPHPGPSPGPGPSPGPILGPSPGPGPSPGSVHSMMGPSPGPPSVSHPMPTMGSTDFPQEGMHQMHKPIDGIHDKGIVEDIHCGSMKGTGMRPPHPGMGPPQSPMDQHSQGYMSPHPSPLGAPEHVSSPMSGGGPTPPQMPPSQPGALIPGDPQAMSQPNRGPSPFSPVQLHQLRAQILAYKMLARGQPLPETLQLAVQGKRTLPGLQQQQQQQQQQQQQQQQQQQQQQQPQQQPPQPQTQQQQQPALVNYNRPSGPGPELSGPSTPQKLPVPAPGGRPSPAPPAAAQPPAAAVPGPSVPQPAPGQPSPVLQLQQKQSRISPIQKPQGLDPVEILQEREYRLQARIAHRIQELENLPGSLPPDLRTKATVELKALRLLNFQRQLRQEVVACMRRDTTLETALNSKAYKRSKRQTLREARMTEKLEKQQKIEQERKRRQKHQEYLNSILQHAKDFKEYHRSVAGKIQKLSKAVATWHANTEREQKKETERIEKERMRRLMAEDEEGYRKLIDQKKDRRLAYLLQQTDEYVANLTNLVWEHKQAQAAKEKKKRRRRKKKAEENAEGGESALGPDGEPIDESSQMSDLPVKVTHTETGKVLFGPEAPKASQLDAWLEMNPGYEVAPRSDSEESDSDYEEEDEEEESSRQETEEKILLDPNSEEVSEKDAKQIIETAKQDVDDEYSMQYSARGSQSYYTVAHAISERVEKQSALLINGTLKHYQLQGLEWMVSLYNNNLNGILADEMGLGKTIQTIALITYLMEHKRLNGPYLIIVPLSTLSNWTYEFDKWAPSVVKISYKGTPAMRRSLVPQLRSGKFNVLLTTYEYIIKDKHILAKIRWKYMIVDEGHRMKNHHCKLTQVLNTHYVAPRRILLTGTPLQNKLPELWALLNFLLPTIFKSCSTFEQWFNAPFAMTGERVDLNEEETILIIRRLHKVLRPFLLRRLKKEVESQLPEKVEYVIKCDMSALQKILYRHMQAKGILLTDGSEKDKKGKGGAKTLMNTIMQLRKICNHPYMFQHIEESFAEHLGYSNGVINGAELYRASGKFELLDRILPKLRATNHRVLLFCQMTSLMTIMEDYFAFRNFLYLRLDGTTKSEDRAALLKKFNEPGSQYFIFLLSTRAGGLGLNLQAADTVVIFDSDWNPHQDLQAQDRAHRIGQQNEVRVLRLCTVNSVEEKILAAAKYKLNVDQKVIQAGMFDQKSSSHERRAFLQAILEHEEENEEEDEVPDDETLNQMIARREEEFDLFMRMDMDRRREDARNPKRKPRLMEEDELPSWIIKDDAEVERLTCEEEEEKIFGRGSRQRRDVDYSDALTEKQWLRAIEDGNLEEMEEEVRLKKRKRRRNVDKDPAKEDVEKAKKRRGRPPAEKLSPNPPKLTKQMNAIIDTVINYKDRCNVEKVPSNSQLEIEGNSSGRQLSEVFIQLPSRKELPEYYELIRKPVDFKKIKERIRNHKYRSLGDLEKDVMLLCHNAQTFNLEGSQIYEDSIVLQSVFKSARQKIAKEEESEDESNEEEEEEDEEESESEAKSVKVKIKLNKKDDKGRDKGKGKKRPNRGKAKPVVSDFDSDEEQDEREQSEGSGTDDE
T1 sequence (P51532 whole entry): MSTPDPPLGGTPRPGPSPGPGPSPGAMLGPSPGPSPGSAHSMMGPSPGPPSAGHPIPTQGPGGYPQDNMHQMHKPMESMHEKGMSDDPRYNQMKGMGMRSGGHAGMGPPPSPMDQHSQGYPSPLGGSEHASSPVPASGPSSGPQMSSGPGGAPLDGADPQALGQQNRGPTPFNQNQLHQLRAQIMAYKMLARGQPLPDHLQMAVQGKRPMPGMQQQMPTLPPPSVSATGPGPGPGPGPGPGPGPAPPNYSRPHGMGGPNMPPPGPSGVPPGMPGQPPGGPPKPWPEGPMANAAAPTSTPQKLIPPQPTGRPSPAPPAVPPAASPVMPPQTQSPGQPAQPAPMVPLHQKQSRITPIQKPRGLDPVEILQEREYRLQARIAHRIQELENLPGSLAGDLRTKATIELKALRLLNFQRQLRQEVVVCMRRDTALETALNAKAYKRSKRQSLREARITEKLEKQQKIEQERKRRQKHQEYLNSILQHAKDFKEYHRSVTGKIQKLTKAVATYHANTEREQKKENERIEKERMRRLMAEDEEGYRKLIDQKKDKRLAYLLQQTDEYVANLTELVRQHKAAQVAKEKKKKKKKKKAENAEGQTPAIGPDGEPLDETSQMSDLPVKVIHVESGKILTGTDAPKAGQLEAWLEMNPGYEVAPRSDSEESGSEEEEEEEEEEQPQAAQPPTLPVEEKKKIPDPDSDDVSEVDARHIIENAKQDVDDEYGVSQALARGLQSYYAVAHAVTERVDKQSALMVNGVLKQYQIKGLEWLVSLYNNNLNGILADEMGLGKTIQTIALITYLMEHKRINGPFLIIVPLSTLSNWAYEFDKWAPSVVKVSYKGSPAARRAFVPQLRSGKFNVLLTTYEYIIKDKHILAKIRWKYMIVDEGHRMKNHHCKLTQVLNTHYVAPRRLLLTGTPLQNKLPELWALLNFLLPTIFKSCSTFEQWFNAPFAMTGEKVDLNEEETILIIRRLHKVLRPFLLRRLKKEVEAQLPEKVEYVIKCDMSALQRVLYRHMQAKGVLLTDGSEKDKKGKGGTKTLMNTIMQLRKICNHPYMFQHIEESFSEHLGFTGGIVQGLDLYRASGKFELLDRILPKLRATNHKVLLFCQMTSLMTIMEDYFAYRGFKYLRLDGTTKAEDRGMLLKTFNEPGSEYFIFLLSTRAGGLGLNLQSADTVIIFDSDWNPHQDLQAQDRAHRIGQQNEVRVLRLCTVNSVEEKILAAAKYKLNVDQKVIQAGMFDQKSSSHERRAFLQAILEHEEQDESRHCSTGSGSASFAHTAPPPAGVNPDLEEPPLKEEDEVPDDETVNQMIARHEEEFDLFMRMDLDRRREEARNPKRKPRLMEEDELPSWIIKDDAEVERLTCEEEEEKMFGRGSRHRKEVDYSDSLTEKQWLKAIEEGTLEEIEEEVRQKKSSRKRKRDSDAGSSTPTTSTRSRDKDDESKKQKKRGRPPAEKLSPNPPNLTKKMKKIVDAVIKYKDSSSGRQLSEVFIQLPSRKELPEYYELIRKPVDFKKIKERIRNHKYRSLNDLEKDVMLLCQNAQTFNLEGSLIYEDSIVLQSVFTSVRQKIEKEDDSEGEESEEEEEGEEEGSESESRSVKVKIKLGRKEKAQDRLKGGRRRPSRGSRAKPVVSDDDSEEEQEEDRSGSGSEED
His-CRBN, sequence (Q96SW2 whole entry): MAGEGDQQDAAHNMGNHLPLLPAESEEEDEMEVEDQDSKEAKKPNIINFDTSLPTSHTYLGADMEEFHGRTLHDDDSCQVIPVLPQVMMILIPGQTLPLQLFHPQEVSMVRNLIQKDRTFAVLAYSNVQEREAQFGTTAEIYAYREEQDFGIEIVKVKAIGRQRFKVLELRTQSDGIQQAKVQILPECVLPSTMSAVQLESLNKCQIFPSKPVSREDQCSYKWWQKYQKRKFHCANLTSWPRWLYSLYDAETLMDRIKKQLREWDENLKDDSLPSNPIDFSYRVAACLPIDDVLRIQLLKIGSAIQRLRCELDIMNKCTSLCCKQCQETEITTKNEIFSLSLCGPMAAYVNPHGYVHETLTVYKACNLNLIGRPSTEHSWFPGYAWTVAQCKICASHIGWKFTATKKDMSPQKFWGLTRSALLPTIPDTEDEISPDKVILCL

Row | IC50 of cell growth ([2]; 10 doses from 10 μM to 1 nM) | binding to CRBN (His-CRBN) | binding to SMARCA2 (SMARCA2 [4]) | binding to SMARCA4 (SMARCA4 [5]) | Compound | clinical response ([1]; monotherapy) | side effect profile ([1]; treatment of MLLr AML) | anti-proliferative effects (MLL rearranged cells) | expression of MLL-AF9 target genes (subset such as MYB and FLT3), RNA-seq heatmap (MLL-AF9 targets) | cleaved PARP expression, indicating apoptosis (cleaved PARP) | cell growth inhibition / cytotoxicity [2] | SMARCA4 degradation (SMARCA4 [3]) | SMARCA2 degradation (SMARCA2 [6])
1 |  |  |  |  | CC(C)N(C[C@H]1OC(n2cnc3c(N)ncnc32)[C@H](O)[C@@H]1O)C1CC(CCc2nc3cc(C(C)(C)C)ccc3[nH]2)C1 (stereo partly drawn) [EPZ5676, (2R,3R,4S,5R)-2-(6-amino-9H-purin-9-yl)-5-((((1s,3R)-3-(2-(5-(tert-butyl)-1H-benzo[d]imidazol-2-yl)ethyl)cyclobutyl)(isopropyl)amino)methyl)tetrahydrofuran-3,4-diol] | low effective responses and subsequent relapses | promising side effect profile | remarkably selective anti-proliferative effects | could not—or just slightly—affect the gene expression |  |  |  | 
2 | low nanomolar range | binds | binds | binds | O=C1CCC(N2C(=O)c3ccc(NCCCCCCCCOCCc4cccc(N5C[C@H]6C[C@@H]5CN6/C=C/C(=O)c5ccccc5O)c4)cc3C2=O)C(=O)N1 (stereo partly drawn) [S31, 2-(2,6-dioxopiperidin-3-yl)-5-((8-(3-((1R,4R)-5-((E)-3-(2-hydroxyphenyl)-3-oxoprop-1-en-1-yl)-2,5-diazabicyclo[2.2.1]heptan-2-yl)phenethoxy)octyl)amino)isoindoline-1,3-dione] |  |  |  | could not—or just slightly—affect the gene expression; also recorded: sensitizes MLL-AF9 targets to EPZ5676 | cleaved PARP expression abundance was observed | profound inhibition; also recorded: induces cytotoxicity | degraded; also recorded: degradation was observed | degraded; also recorded: degradation was observed
